Laboratory results as given in patent US7786113B2, “Heterocyclic carbamate derivatives, their manufacture and use as pharmaceutical agents” (Hoffman-La Roche Inc., priority 2004, dated 2010).

How the values were obtained:
Src (p60^c-src) = target: T1, Src (p60^c-src) (Homo sapiens, UniProt P12931); test: SRC-Inhibitor-Assay (time-resolved fluorescence kinase assay), Src; type: biochemical; conditions: ATP 5 μM, peptide 10 μM, enzyme 2.5 U/ml, pH 7.3
T1 construct: purchased UBI, Upstate Biotech, Inc
Source text: (§1) The activity of the compounds according to this invention as inhibitors for the src-family tyrosine kinases was shown by using the following assay.
(§2) ATP, Tween™ 20, 4-(2-hydroxyethyl)-1-piperazineethanesulfonic acid (HEPES) were purchased from Roche Molecular Biochemicals, MgCl2 and MnCl2 were purchased from Merck Eurolab, Tris(2-carboxyethyl)phosphine hydrochloride (TCEP) was purchased from Pierce, 384 Well low volume fluorescence plates was purchased from Falcon.
(§3) At first the enzyme is pre-incubated for 15 min. at 15° C. in aqueous solution with corresponding amounts of inhibitors according to this invention. Then the phosphorylation reaction is started by adding a reaction mixture, containing ATP, Peptide and PT66, and subsequent shaking. The proceeding of this reaction is immediately monitored using time resolved fluorescence spectroscopy in a suitable well plate reader.
(§4) The IC50-values can be obtained from the reaction rates by using a non-linear curve fit (XLfit software (ID Business Solution Ltd., Guilford, Surrey, UK))

Lck (p56^lck) = target: T2, Lck (p56^lck) (Homo sapiens, UniProt P06239); test: SRC-Inhibitor-Assay (time-resolved fluorescence kinase assay), Lck; type: biochemical; conditions: ATP 5 μM, peptide 10 μM, enzyme 2.5 U/ml, pH 7.3
T2 construct: purchased UBI, Upstate Biotech, Inc
Source text: as §1, §2, §3, §4

T1 sequence (P12931 whole entry): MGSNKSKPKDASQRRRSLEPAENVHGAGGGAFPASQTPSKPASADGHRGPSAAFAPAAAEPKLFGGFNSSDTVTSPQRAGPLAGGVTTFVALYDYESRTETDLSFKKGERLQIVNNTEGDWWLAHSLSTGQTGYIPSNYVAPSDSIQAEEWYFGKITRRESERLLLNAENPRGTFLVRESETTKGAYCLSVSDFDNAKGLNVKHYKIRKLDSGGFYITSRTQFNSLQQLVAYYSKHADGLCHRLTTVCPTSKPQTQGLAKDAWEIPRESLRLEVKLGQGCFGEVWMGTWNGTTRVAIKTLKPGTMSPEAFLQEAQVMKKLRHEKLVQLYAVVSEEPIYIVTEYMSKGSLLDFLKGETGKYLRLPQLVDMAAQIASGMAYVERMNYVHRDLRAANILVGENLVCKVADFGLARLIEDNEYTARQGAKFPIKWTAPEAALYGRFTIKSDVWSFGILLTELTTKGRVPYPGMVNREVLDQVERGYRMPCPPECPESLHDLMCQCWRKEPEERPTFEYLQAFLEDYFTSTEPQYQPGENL
T2 sequence (P06239 whole entry): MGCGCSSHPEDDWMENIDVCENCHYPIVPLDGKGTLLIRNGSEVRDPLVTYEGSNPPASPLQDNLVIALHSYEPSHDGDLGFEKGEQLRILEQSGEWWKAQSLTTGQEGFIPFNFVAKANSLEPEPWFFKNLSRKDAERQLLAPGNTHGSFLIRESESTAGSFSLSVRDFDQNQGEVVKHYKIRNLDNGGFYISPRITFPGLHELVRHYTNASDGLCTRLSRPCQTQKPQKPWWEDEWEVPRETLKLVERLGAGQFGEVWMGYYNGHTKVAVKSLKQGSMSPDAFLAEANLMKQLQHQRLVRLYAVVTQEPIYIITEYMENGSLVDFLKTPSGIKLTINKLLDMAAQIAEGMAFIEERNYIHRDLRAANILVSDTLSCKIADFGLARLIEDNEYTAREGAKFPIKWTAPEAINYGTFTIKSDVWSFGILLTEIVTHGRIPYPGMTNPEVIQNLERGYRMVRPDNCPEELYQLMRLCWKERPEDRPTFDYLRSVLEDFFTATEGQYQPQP

IC50 (Src (p60^c-src)) [nM]	IC50 (Lck (p56^lck)) [nM]	Structure (SMILES)
10 to 500	100 to 9000	CC(=O)Nc1cccc(-c2cc3cc(NC(=O)OCc4ccccc4)cnc3[nH]2)c1 [Example 9-23, [2-(3-Acetylamino-phenyl)-1H-pyrrolo[2,3-b]pyridin-5-yl]-carbamic acid benzyl ester]
10 to 500	100 to 9000	CC(C)OC(=O)Nc1cnc2[nH]c(-c3ccc(N)cc3)nc2c1 [Example 5-2, [2-(4-Amino-phenyl)-3H-imidazo[4,5-b]pyridin-6-yl]-carbamic acid isopropyl ester]
39	791	CC(=O)Nc1cccc(-c2nc3cc(NC(=O)OC(C)C)cnc3[nH]2)c1 [Example 6-1, [2-(3-Acetylamino-phenyl)-3H-imidazo[4,5-b]pyridin-6-yl]-carbamic acid isopropyl ester]
185	1340	CC(C)OC(=O)Nc1cnc2[nH]c(-c3cccc([N+](=O)[O-])c3)nc2c1 [Example 2-4, [2-(3-Nitro-phenyl)-3H-imidazo[4,5-b]pyridin-6-yl]-carbamic acid isopropyl ester]
10 to 500	100 to 9000	O=C(Nc1cnc2[nH]c(-c3ccccc3)nc2c1)OC1CCC1 [Example 1-17, (2-Phenyl-3H-imidazo[4,5-b]pyridin-6-yl)-carbamic acid cyclobutyl ester]
10 to 500	100 to 9000	CC(C)OC(=O)Nc1cnc2[nH]c(-c3ccc(N4CCN(C)CC4)cc3)nc2c1 [Example 2-8, {2-[4-(4-Methyl-piperazin-1-yl)-phenyl]-3H-imidazo[4,5-b]pyridin-6-yl}-carbamic acid isopropyl ester]
10 to 500	100 to 9000	CC(C)OC(=O)Nc1cnc2[nH]c(-c3ccc(N4CCOCC4)nc3)nc2c1 [Example 3-7, [2-(6-Morpholin-4-yl-pyridin-3-yl)-3H-imidazo[4,5-b]pyridin-6-yl]-carbamic acid isopropyl ester]
10 to 500	100 to 9000	COCCN(CCOC)c1ccc(-c2nc3cc(NC(=O)OC(C)C)cnc3[nH]2)cc1F [Example 10-2, (2-{4-[Bis-(2-methoxy-ethyl)-amino]-3-fluoro-phenyl}-3H-imidazo[4,5-b]pyridin-6-yl)-carbamic acid isopropyl ester]
10 to 500	100 to 9000	CCCOC(=O)Nc1cnc2nc(-c3ccccc3)[nH]c2c1 [Example 1-14, (2-Phenyl-1H-imidazo[4,5-b]pyridin-6-yl)-carbamic acid propyl ester]
10 to 500	100 to 9000	COCCOc1ccc(-c2cc3cc(NC(=O)OC(C)C)cnc3[nH]2)cc1 [Example 9-17, {2-[4-(2-Methoxy-ethoxy)-phenyl]-1H-pyrrolo[2,3-b]pyridin-5-yl}-carbamic acid isopropyl ester]
10 to 500	100 to 9000	CC(=O)Nc1cccc(-c2cc3cc(NC(=O)OC(C)C)cnc3[nH]2)c1 [Example 9-20, [2-(3-Acetylamino-phenyl)-1H-pyrrolo[2,3-b]pyridin-5-yl]-carbamic acid isopropyl ester]
10 to 500	100 to 9000	CC(C)OC(=O)Nc1cnc2nc(-c3ccccc3)[nH]c2c1 [Example 1-2, (2-Phenyl-1H-imidazo[4,5-b]pyridin-6-yl)-carbamic acid isopropyl ester]
10 to 500	100 to 9000	Cc1cc(-c2nc3cc(NC(=O)OC(C)C)cnc3[nH]2)ccn1 [Example 3-1, [2-(2-Methyl-pyridin-4-yl)-3H-imidazo[4,5-b]pyridin-6-yl]-carbamic acid isopropyl ester]
10 to 500	100 to 9000	CC(C)OC(=O)Nc1cnc2[nH]c(-c3cccc(NS(C)(=O)=O)c3)nc2c1 [Example 7-1, [2-(3-Methanesulfonylamino-phenyl)-3H-imidazo[4,5-b]pyridin-6-yl]-carbamic acid isopropyl ester]
10 to 500	100 to 9000	C#CC(C)OC(=O)Nc1cnc2[nH]c(-c3ccccc3)nc2c1 (centres unmarked) [Example 1-15, (2-Phenyl-3H-imidazo[4,5-b]pyridin-6-yl)-carbamic acid 1-methyl-prop-2-ynyl ester]
10 to 500	100 to 9000	C=CC(C)OC(=O)Nc1cnc2[nH]c(-c3ccccc3)nc2c1 (centres unmarked) [Example 1-1, (2-Phenyl-3H-imidazo[4,5-b]pyridin-6-yl)-carbamic acid 1-methyl-allyl ester]
10 to 500	100 to 9000	COCCCNC(=O)c1cccc(-c2nc3cc(NC(=O)OC(C)C)cnc3[nH]2)c1 [Example 11-3, {2-[3-(3-Methoxy-propylcarbamoyl)-phenyl]-3H-imidazo[4,5-b]pyridin-6-yl}-carbamic acid isopropyl ester]

IC50 (Src (p60^c-src)) [nM]	IC50 (Lck (p56^lck)) [nM]	Structure (SMILES)
10 to 500	100 to 9000	C=CCOC(=O)Nc1cnc2[nH]c(-c3ccc(OCCOC)cc3)cc2c1 [Example 9-5, {2-[4-(2-Methoxy-ethoxy)-phenyl]-1H-pyrrolo[2,3-b]pyridin-5-yl}-carbamic acid allyl ester]
10 to 500	100 to 9000	CC(C)OC(=O)Nc1cnc2[nH]c(-c3ccccc3)cc2c1 [Example 9-1, (2-Phenyl-1H-pyrrolo[2,3-b]pyridin-5-yl)-carbamic acid isopropyl ester]
10 to 500	100 to 9000	COCCOc1ccc(-c2nc3cc(NC(=O)OC(C)C)cnc3[nH]2)cc1 [Example 2-3, {2-[4-(2-Methoxy-ethoxy)-phenyl]-3H-imidazo[4,5-b]pyridin-6-yl}-carbamic acid isopropyl ester]
10 to 500	100 to 9000	CC(C)OC(=O)Nc1cnc2[nH]c(-c3cccc(S(C)(=O)=O)c3)nc2c1 [Example 8-2, [2-(3-Methylsulfonyl-phenyl)-3H-imidazo[4,5-b]pyridin-6-yl]-carbamic acid isopropyl ester]
10 to 500	100 to 9000	C=C(C)C(C)OC(=O)Nc1cnc2[nH]c(-c3ccccc3)nc2c1 (centres unmarked) [Example 1-22, (2-Phenyl-3H-imidazo[4,5-b]pyridin-6-yl)-carbamic acid 1,2-dimethyl-allyl ester]
10 to 500	100 to 9000	CCN(CC)CCOc1ccc(-c2nc3cc(NC(=O)OC(C)C)cnc3[nH]2)cc1 [Example 2-1, {2-[4-(2-Diethylamino-ethoxy)-phenyl]-3H-imidazo[4,5-b]pyridin-6-yl}-carbamic acid isopropyl ester]
228	5000 to 10000	CC(OC(=O)Nc1cnc2[nH]c(-c3ccccc3)nc2c1)C(F)(F)F (centres unmarked) [Example 1-11, (2-Phenyl-3H-imidazo[4,5-b]pyridin-6-yl)-carbamic acid 2,2,2-trifluoro-1-methyl-ethyl ester]
10 to 500	100 to 9000	CC(C)OC(=O)Nc1cnc2[nH]c(-c3ccc([S+](C)[O-])cc3)nc2c1 (centres unmarked) [Example 8-4, [2-(4-Methanesulfinyl-phenyl)-3H-imidazo[4,5-b]pyridin-6-yl]-carbamic acid isopropyl ester]
10 to 500	100 to 9000	COCCOc1ccc(-c2cc3cc(NC(=O)OCC(C)C)cnc3[nH]2)cc1 [Example 9-19, {2-[4-(2-Methoxy-ethoxy)-phenyl]-1H-pyrrolo[2,3-b]pyridin-5-yl}-carbamic acid isobutyl ester]
10 to 500	100 to 9000	CCC(C)OC(=O)Nc1cnc2[nH]c(-c3ccccc3)nc2c1 (centres unmarked) [Example 1-9, (2-Phenyl-3H-imidazo[4,5-b]pyridin-6-yl)-carbamic acid sec-butyl ester]
10 to 500	100 to 9000	CC(C)OC(=O)Nc1cnc2[nH]c(-c3cccc(N)c3)nc2c1 [Example 5-1, [2-(3-Amino-phenyl)-3H-imidazo[4,5-b]pyridin-6-yl]-carbamic acid isopropyl ester]
10 to 500	100 to 9000	CCOC(=O)Nc1cnc2[nH]c(-c3ccc(OCCOC)cc3)cc2c1 [Example 9-4, {2-[4-(2-Methoxy-ethoxy)-phenyl]-1H-pyrrolo[2,3-b]pyridin-5-yl}-carbamic acid ethyl ester]
10 to 500	100 to 9000	CC#CC(C)OC(=O)Nc1cnc2[nH]c(-c3ccccc3)nc2c1 (centres unmarked) [Example 1-16, (2-Phenyl-3H-imidazo[4,5-b]pyridin-6-yl)-carbamic acid 1-methyl-but-2-ynyl ester]
10 to 500	100 to 9000	CC(C)OC(=O)Nc1cnc2[nH]c(-c3ccc(F)c(F)c3)nc2c1 [Example 10-1, [2-(3,4-Difluoro-phenyl)-3H-imidazo[4,5-b]pyridin-6-yl]-carbamic acid isopropyl ester]
500 to 1500	2000 to 9000	CC(C)C(C)OC(=O)Nc1cnc2[nH]c(-c3ccccc3)nc2c1 (centres unmarked) [Example 1-19, (2-Phenyl-3H-imidazo[4,5-b]pyridin-6-yl)-carbamic acid 1,2-dimethyl-propyl ester]
10 to 500	100 to 9000	CC(C)OC(=O)Nc1cnc2[nH]c(-c3ccc([N+](=O)[O-])cc3)nc2c1 [Example 3-4, [2-(4-Nitro-phenyl)-3H-imidazo[4,5-b]pyridin-6-yl]-carbamic acid isopropyl ester]
10 to 500	100 to 9000	COCC(COC)NC(=O)c1cccc(-c2nc3cc(NC(=O)OC(C)C)cnc3[nH]2)c1 [Example 11-2, {2-[3-(2-Methoxy-1-methoxymethyl-ethylcarbamoyl)-phenyl]-3H-imidazo[4,5-b]pyridin-6-yl}-carbamic acid isopropyl ester]
